Results as given in US7037909B2, “Tetracyclic compounds as c-Met inhibitors” (Sugen, Inc., priority 2003, dated 2006).

What follows are compounds tested against T1, c-MET (Homo sapiens, UniProt P08581) (assay: MET Transphosphorylation Assay (ELISA, poly(Glu,Tyr) 4:1 substrate)). Settings: not given.
T1 construct: Purified GST fusion protein containing the Met kinase domain, Sugen, Inc
T1 sequence (P08581 1078-1345 limits assumed): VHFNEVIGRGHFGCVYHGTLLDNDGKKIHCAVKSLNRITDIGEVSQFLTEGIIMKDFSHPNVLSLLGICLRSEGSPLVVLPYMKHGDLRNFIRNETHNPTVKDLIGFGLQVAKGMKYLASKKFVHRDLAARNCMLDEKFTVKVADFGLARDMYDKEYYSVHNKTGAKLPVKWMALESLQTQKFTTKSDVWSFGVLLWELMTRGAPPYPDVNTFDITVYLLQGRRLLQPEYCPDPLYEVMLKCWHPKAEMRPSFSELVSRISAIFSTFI
Format: biochemical
Protocol: MET Transphosphorylation Assay
This assay is used to measure phosphotyrosine levels on a poly(glutamic acid:tyrosine (4:1)) substrate as a means for identifying agonists/antagonists of met transphosphorylation of the substrate.
• 1. […] PBS, Gibco Catalog #450-1300EB • 4. 50 mM HEPES • 5. […] Purified GST fusion protein containing the Met kinase domain, Sugen, Inc. • 7. TBST Buffer. • 8. 10% aqueous (MilliQue H2O) DMSO. • 9. […] 2× Kinase Dilution Buffer: for 100 ml, mix 10 mL 1M HEPES at pH 7.5 with 0.4 mL 5% BSA/PBS, 0.2 mL 0.1M sodium orthovanadate and 1 mL 5M sodium chloride in 88.4 mL dH2O. • 11. 4× ATP Reaction Mixture: for 10 mL, mix 0.4 mL 1M manganese chloride and 0.02 mL 0.1M ATP in 9.56 mL dH2O. • 12. 4× Negative Controls Mixture: for 10 mL, mix 0.4 mL 1M manganese chloride in 9.6 mL dH2O. • 13. […] 500 mM EDTA. • 15. Antibody Dilution Buffer: for 100 mL, mix 10 mL 5% BSA/PBS, 0.5 mL 5% Carnation Instant Milk® in PBS and 0.1 mL 0.1M sodium orthovanadate in 88.4 mL TBST. • 16. Rabbit polyclonal antophosphotyrosine antibody, Sugen, Inc. • 17. Goat anti-rabbit horseradish peroxidase conjugated antibody, Biosource, Inc. • 18. ABTS Solution: for 1 L, mix 19.21 g citric acid, 35.49 g Na2HPO4 and 500 mg ABTS with sufficient dH2O to make 1 L. • 19. ABTS/H2O2: mix 15 mL ABST solution with 2 μL H2O2 five minutes before use. • 20. 0.2M HCl Procedure: • 1. Coat ELISA plates with 2 μg Poly(Glu-Tyr) in 100 μL PBS, store overnight at 4° C. • 2. Block plate with 150 μL of 5% BSA/PBS for 60 min. • 3. Wash plate twice with PBS, once with 50 mM Hepes buffer pH 7.4. • 4. Add 50 μl of the diluted kinase to all wells. (Purified kinase is diluted with Kinase Dilution Buffer. Final concentration should be 10 ng/well.) • 5. Add 25 μL of the test compound (in 4% DMSO) or DMSO alone (4% in dH2O) for controls to plate. • 6. Incubate the kinase/compound mixture for 15 minutes. • 7. Add 25 μL of 40 mM MnCl2 to the negative control wells. • 8. Add 25 μL ATP/MnCl2 mixture to the all other wells (except the negative controls). Incubate for 5 min. • 9. Add 25 μL 500 mM EDTA to stop reaction. • 10. Wash plate 3× with TBST. • 11. Add 100 μL rabbit polyclonal anti-Ptyr diluted 1:10,000 in Antibody Dilution Buffer to each well. Incubate, with shaking, at room temperature for one hour. • 12. Wash plate 3× with TBST. • 13. Dilute Biosource HRP conjugated anti-rabbit antibody 1: 6,000 in Antibody Dilution buffer. Add 100 μL per well and incubate at room temperature, with shaking, for one hour. • 14. Wash plate 1× with PBS. • 15. Add 100 μl of ABTS/H2O2 solution to each well. • 16. If necessary, stop the development reaction with the addition of 100 μl of 0.2M HCl per well. • 17. […]
`COc1ccc2[nH]c3nc4nnc(Cc5ccc(O)cc5)n4nc3c2c1Cl` [Example 19, 4-(5-Chloro-6-methoxy-9H-1,2,3a,4,9,10-hexaaza-cyclopenta[b]fluoren-3-ylmethyl)-phenol] showed an IC50 of 12 nM.

Same assay, conditions: purified GST fusion protein containing the Met kinase domain; poly(glu, tyr) 4:1 substrate; read-out: c-MET IC50
With `Oc1ccc(Cc2nnc3nc4[nH]c5c(Cl)cc(Cl)c(Cl)c5c4nn23)cc1` [Example 23, 4-(5,6,8-Trichloro-9H-1,2,3a,4,9,10-hexaaza-cyclopenta[b]fluoren-3-ylmethyl)-phenol] the IC50 was 460 nM. Work on `Oc1ccc(Cc2nnc3nc4[nH]c5ccccc5c4nn23)cc1` [Example 17, 4-(9H-1,2,3a,4,9,10-Hexaaza-cyclopenta[b]fluoren-3-ylmethyl)-phenol] yielded an IC50 of 18 nM. `Cc1cc(OCCN2CCOCC2)c(C)c2c1[nH]c1nc3nnc(Cc4ccc(O)cc4)n3nc12` [Example 35, 4-[5,8-Dimethyl-6-(2-morpholin-4-yl-ethoxy)-9H-1,2,3a,4,9,10-hexaaza-cyclopenta[b]fluoren-3-ylmethyl]-phenol] gave an IC50 of 28 nM. With `Cc1cc(C)c2[nH]c3nc4nnc(Cc5ccc(O)cc5)n4nc3c2c1` [Example 25, 4-(6,8-Dimethyl-9H-1,2,3a,4,9,10-hexaaza-cyclopenta[b]fluoren-3-ylmethyl)-phenol] the IC50 was 55 nM. With `Cc1cc(Cl)cc2c1[nH]c1nc3nnc(Cc4ccc(O)cc4)n3nc12` [Example 26, 4-(6-Chloro-8-methyl-9H-1,2,3a,4,9,10-hexaaza-cyclopenta[b]fluoren-3-ylmethyl)-phenol] the IC50 was 25 nM. For `Oc1ccc(Cc2nnc3nc4[nH]c5c(Cl)ccc(Cl)c5c4nn23)cc1` [Example 18, 4-(5,8-Dichloro-9H-1,2,3a,4,9,10-hexaaza-cyclopenta[b]fluoren-3-ylmethyl)-phenol], the IC50 was 36 nM. `Cc1cc(OCCN2CCOCC2)c(C)c2c1[nH]c1nc3nnc(Cc4ccc(F)cc4)n3nc12` [Example 36, 3-(4-Fluoro-benzyl)-5,8-dimethyl-6-(2-morpholin-4-yl-ethoxy)-9H-1,2,3a,4,9,10-hexaaza-cyclopenta[b]fluorine] was tested, and the IC50 was 560 nM. `COc1cc(Cl)c2[nH]c3nc4nnc(Cc5ccc(O)cc5)n4nc3c2c1Cl` [Example 20, 4-(5,8-Dichloro-6-methoxy-9H-1,2,3a,4,9,10-hexaaza-cyclopenta[b]fluoren-3-ylmethyl)-phenol] was tested, and the IC50 was 46 nM. `N[C@H]1CCN(C(=O)c2ccc3[nH]c4nc5nnc(Cc6ccc(F)cc6)n5nc4c3c2Cl)C1` [Example 34, [(3S)-3-Amino-pyrrolidin-1-yl]-[5-chloro-3-(4-fluoro-benzyl)-9H-1,2,3a,4,9,10-hexaaza-cyclopenta[b]fluoren-6-yl]-methanone] gave an IC50 of 42 nM. For `Oc1ccc(Cc2nnc3nc4[nH]c5c(Cl)cccc5c4nn23)cc1` [Example 22, 4-(8-Chloro-9H-1,2,3a,4,9,10-hexaaza-cyclopenta[b]fluoren-3-ylmethyl)-phenol], the IC50 was 35 nM. For `Cc1ccc(C)c2c1[nH]c1nc3nnc(Cc4ccc(O)cc4)n3nc12` [Example 24, 4-(5,8-Dimethyl-9H-1,2,3a,4,9,10-hexaaza-cyclopenta[b]fluoren-3-ylmethyl)-phenol, dihydrate], the IC50 was 22 nM. `Oc1ccc(Cc2nnc3nc4[nH]c5cccc(Cl)c5c4nn23)cc1` [Example 21, 4-(5-Chloro-9H-1,2,3a,4,9,10-hexaaza-cyclopenta[b]fluoren-3-ylmethyl)-phenol] was tested, and the IC50 was 10 nM.
